Measurements reported in ChEMBL document CHEMBL3877266, “Repurposing N,N'-bis-(arylamidino)-1,4-piperazinedicarboxamidines: An unexpected class of potent inhibitors of cholinesterases” (Eur J Med Chem, 2017).

Key:
Acetylcholinesterase [1] = target: T1, Acetylcholinesterase (Electrophorus electricus, UniProt O42275); assay: Non-competitive inhibition of Electrophorus electricus acetylcholinesterase in presence of varying acetylthiocholine iodide substrate level preincubated for 20 mins followed by substrate addition measured every 1 min for 30 mins
T1 sequence (O42275 whole entry): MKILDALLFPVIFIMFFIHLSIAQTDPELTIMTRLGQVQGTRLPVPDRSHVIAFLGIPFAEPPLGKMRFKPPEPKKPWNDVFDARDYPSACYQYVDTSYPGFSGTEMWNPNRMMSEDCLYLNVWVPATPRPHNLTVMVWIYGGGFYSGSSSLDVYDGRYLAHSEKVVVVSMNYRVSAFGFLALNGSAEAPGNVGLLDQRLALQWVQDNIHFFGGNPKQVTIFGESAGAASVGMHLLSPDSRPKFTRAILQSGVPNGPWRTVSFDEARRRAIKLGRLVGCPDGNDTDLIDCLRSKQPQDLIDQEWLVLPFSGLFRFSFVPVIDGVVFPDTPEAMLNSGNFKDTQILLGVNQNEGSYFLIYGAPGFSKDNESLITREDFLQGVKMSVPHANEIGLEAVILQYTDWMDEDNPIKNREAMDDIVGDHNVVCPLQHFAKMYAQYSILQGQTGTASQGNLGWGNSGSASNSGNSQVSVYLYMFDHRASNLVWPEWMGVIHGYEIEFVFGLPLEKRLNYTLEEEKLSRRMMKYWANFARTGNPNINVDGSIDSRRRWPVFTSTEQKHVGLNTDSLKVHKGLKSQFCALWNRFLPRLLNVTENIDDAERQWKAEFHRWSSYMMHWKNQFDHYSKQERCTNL

Cholinesterase [2] = target: T2, Cholinesterase (Equus caballus, UniProt P81908); assay: Non-competitive inhibition of equine serum butyrylcholinesterase in presence of varying butyrylthiocholine iodide substrate level preincubated for 20 mins followed by substrate addition measured every 1 min for 30 mins
T2 sequence (P81908 whole entry): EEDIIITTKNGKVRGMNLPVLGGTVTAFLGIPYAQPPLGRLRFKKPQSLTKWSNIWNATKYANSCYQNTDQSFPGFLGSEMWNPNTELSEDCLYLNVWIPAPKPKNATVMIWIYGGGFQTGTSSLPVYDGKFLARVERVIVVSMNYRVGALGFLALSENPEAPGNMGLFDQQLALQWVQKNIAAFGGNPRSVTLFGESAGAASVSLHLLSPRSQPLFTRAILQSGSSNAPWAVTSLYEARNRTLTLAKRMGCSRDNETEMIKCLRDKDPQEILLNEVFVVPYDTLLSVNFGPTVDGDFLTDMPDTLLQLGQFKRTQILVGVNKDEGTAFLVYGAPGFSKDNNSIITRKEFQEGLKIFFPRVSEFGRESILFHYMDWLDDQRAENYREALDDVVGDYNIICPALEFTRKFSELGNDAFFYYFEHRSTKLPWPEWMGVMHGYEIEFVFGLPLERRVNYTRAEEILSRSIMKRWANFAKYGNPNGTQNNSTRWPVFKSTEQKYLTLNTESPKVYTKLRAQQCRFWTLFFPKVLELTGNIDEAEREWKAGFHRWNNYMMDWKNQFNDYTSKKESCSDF

Acetylcholinesterase [3] = target: T1, Acetylcholinesterase; assay: Competitive inhibition of Electrophorus electricus acetylcholinesterase in presence of varying acetylthiocholine iodide substrate level preincubated for 20 mins followed by substrate addition measured every 1 min for 30 mins
Cholinesterase [4] = target: T2, Cholinesterase; assay: Competitive inhibition of equine serum butyrylcholinesterase in presence of varying butyrylthiocholine iodide substrate level preincubated for 20 mins followed by substrate addition measured every 1 min for 30 mins

N=C(NC(=N)N1CCN(C(=N)NC(=N)Nc2ccc(Br)cc2)CC1)Nc1ccc(Br)cc1 showed a Ki (Acetylcholinesterase [1]) of 35.5 µM, a Ki (Cholinesterase [2]) of 3.84 µM and a Ki (Acetylcholinesterase [3]) of 3.43 µM. For the same compound, the Ki (Cholinesterase [4]) was 0.61 µM.
For N=C(NC(=N)N1CCN(C(=N)NC(=N)Nc2ccccc2Br)CC1)Nc1ccccc1Br, the Ki (Acetylcholinesterase [1]) was 40.5 µM, the Ki (Cholinesterase [2]) was 12.3 µM and the Ki (Acetylcholinesterase [3]) was 4.19 µM. The Ki (Cholinesterase [4]) was 1.25 µM.
Work on N=C(NC(=N)N1CCN(C(=N)NC(=N)Nc2ccc(I)cc2)CC1)Nc1ccc(I)cc1 yielded a Ki (Acetylcholinesterase [1]) of 49.1 µM, a Ki (Cholinesterase [2]) of 2.74 µM and a Ki (Acetylcholinesterase [3]) of 5.08 µM. It also gave a Ki (Cholinesterase [4]) of 0.31 µM.
In the case of N=C(NC(=N)N1CCN(C(=N)NC(=N)Nc2ccccc2I)CC1)Nc1ccccc1I, the Ki (Acetylcholinesterase [1]) is reported as > 100 µM, the Ki (Cholinesterase [2]) is reported as 11.2 µM and the Ki (Acetylcholinesterase [3]) is reported as 1.56 µM. For the same compound, the Ki (Cholinesterase [4]) was 1.96 µM.
Compound N=C(NC(=N)N1CCN(C(=N)NC(=N)Nc2ccc([N+](=O)[O-])cc2)CC1)Nc1ccc([N+](=O)[O-])cc1 has a Ki (Acetylcholinesterase [1]) of 2.96 µM, a Ki (Cholinesterase [2]) of 22.9 µM and a Ki (Acetylcholinesterase [3]) of 0.52 µM. The Ki (Cholinesterase [4]) was 10.8 µM.
N=C(NC(=N)N1CCN(C(=N)NC(=N)Nc2cccc(Br)c2)CC1)Nc1cccc(Br)c1 gave a Ki (Acetylcholinesterase [1]) of 25.4 µM, a Ki (Cholinesterase [2]) of 10.3 µM and a Ki (Acetylcholinesterase [3]) of 6.17 µM. The Ki (Cholinesterase [4]) was 0.23 µM.
CC(C)(C)c1ccc(NC(=N)NC(=N)N2CCN(C(=N)NC(=N)Nc3ccc(C(C)(C)C)cc3)CC2)cc1 gave a Ki (Acetylcholinesterase [1]) of 21.8 µM, a Ki (Cholinesterase [2]) of 4.41 µM and a Ki (Acetylcholinesterase [3]) of 1.41 µM. It also gave a Ki (Cholinesterase [4]) of 0.12 µM.
N=C(NC(=N)N1CCN(C(=N)NC(=N)Nc2cccc(F)c2)CC1)Nc1cccc(F)c1 gave a Ki (Acetylcholinesterase [1]) of 104 µM, a Ki (Cholinesterase [2]) of 32.9 µM and a Ki (Acetylcholinesterase [3]) of 14.9 µM. It also gave a Ki (Cholinesterase [4]) of 1.7 µM.
COc1ccc(NC(=N)NC(=N)N2CCN(C(=N)NC(=N)Nc3ccc(OC)cc3)CC2)cc1 gave a Ki (Acetylcholinesterase [1]) of 88.9 µM, a Ki (Cholinesterase [2]) of 35.1 µM and a Ki (Acetylcholinesterase [3]) of 25.6 µM. The Ki (Cholinesterase [4]) was 1.78 µM.
In the case of N=C(NC(=N)N1CCN(C(=N)NC(=N)Nc2cccc(I)c2)CC1)Nc1cccc(I)c1, the Ki (Acetylcholinesterase [1]) is reported as 19.9 µM, the Ki (Cholinesterase [2]) is reported as 3.04 µM and the Ki (Acetylcholinesterase [3]) is reported as 2.79 µM. For the same compound, the Ki (Cholinesterase [4]) was 0.21 µM.
With N=C(NC(=N)N1CCN(C(=N)NC(=N)Nc2ccc(OC(F)(F)F)cc2)CC1)Nc1ccc(OC(F)(F)F)cc1 the Ki (Acetylcholinesterase [1]) was 62.2 µM, the Ki (Cholinesterase [2]) was > 20 µM and the Ki (Acetylcholinesterase [3]) was 19.8 µM. It also gave a Ki (Cholinesterase [4]) of 3.34 µM.
N=C(NC(=N)N1CCN(C(=N)NC(=N)Nc2ccc(F)cc2)CC1)Nc1ccc(F)cc1 gave a Ki (Acetylcholinesterase [1]) of 16.2 µM, a Ki (Cholinesterase [2]) of 15.2 µM and a Ki (Acetylcholinesterase [3]) of 7.77 µM. For the same compound, the Ki (Cholinesterase [4]) was 1.18 µM.
For COc1ccccc1NC(=N)NC(=N)N1CCN(C(=N)NC(=N)Nc2ccccc2OC)CC1, the Ki (Acetylcholinesterase [1]) was 13.7 µM, the Ki (Cholinesterase [2]) was 34 µM and the Ki (Acetylcholinesterase [3]) was 4.34 µM. For the same compound, the Ki (Cholinesterase [4]) was 5.2 µM.
With Cc1ccc(NC(=N)NC(=N)N2CCN(C(=N)NC(=N)Nc3ccc(C)cc3)CC2)cc1 the Ki (Acetylcholinesterase [1]) was > 100 µM, the Ki (Cholinesterase [2]) was 11.8 µM and the Ki (Acetylcholinesterase [3]) was 9.25 µM. For the same compound, the Ki (Cholinesterase [4]) was 0.45 µM.
N=C(NC(=N)N1CCN(C(=N)NC(=N)Nc2cccc(Cl)c2)CC1)Nc1cccc(Cl)c1 was tested, and the Ki (Acetylcholinesterase [1]) was > 30 µM, the Ki (Cholinesterase [2]) was 12.2 µM and the Ki (Acetylcholinesterase [3]) was 4.45 µM. For the same compound, the Ki (Cholinesterase [4]) was 0.74 µM.
In the case of COc1cc(NC(=N)NC(=N)N2CCN(C(=N)NC(=N)Nc3cc(OC)c(OC)c(OC)c3)CC2)cc(OC)c1OC, the Ki (Acetylcholinesterase [1]) is reported as 41.2 µM, the Ki (Acetylcholinesterase [3]) is reported as 7.74 µM and the Ki (Cholinesterase [4]) is reported as 9.03 µM.
N=C(NC(=N)N1CCN(C(=N)NC(=N)Nc2ccccc2)CC1)Nc1ccccc1 was tested, and the Ki (Acetylcholinesterase [1]) was 69.2 µM, the Ki (Cholinesterase [2]) was > 40 µM and the Ki (Acetylcholinesterase [3]) was 13.5 µM. For the same compound, the Ki (Cholinesterase [4]) was 0.95 µM.
N=C(NC(=N)N1CCN(C(=N)NC(=N)Nc2ccccc2F)CC1)Nc1ccccc1F was tested, and the Ki (Acetylcholinesterase [1]) was 58.6 µM, the Ki (Cholinesterase [2]) was 25.5 µM and the Ki (Acetylcholinesterase [3]) was 14.9 µM. The Ki (Cholinesterase [4]) was 6.82 µM.
With N=C(NC(=N)N1CCN(C(=N)NC(=N)Nc2ccc(Cl)cc2Cl)CC1)Nc1ccc(Cl)cc1Cl the Ki (Acetylcholinesterase [1]) was 75.3 µM, the Ki (Cholinesterase [2]) was 7.51 µM and the Ki (Acetylcholinesterase [3]) was 9.34 µM. The Ki (Cholinesterase [4]) was 0.41 µM.
Compound COc1cccc(NC(=N)NC(=N)N2CCN(C(=N)NC(=N)Nc3cccc(OC)c3)CC2)c1 has a Ki (Acetylcholinesterase [1]) of 45.2 µM, a Ki (Cholinesterase [2]) of 54.8 µM and a Ki (Acetylcholinesterase [3]) of 10.4 µM. The Ki (Cholinesterase [4]) was 3.02 µM.
In the case of N=C(NC(=N)N1CCN(C(=N)NC(=N)Nc2ccccc2Cl)CC1)Nc1ccccc1Cl, the Ki (Acetylcholinesterase [1]) is reported as 66.7 µM, the Ki (Cholinesterase [2]) is reported as 12.7 µM and the Ki (Acetylcholinesterase [3]) is reported as 6.11 µM. The Ki (Cholinesterase [4]) was 1.85 µM.
In the case of N=C(NC(=N)N1CCN(C(=N)NC(=N)Nc2ccc(Cl)cc2)CC1)Nc1ccc(Cl)cc1 [PICLOXYDINE], the Ki (Acetylcholinesterase [1]) is reported as 28.3 µM, the Ki (Cholinesterase [2]) is reported as 9.37 µM and the Ki (Acetylcholinesterase [3]) is reported as 22 µM. It also gave a Ki (Cholinesterase [4]) of 0.62 µM.
